Experimental data taken from PMC12775434, “Ultra-large virtual screening unveils potent agonists of the neuromodulatory orphan receptor GPR139” (Nature Communications, 2025).
“And” between values parts separate entries of the source, which are not always exact repeats. Equal values may be shown once. Read-outs that look alike come from different tables or passages of the source.

Tests used:
Format in all cases: cell-based
[1] = target: T1, GPR139 (Homo sapiens, UniProt Q6DWJ6); experiment: Ca2+ mobilization assay, agonist mode, stable GPR139-CHOk1 cell line; conditions: for Emax: normalized to Lundbeck Cmp 1a, read-out: Emax (%) Ca2+
T1 sequence (Q6DWJ6 1-353): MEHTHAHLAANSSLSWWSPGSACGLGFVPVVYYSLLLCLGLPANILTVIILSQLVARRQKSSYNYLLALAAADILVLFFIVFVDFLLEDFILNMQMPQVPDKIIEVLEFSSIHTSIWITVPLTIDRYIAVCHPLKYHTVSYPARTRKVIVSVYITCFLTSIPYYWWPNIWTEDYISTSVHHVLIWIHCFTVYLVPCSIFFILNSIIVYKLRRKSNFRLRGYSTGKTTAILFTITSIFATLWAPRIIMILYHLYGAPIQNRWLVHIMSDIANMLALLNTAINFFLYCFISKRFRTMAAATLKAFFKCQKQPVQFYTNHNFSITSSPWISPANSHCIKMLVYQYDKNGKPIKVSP
Procedure, shortened: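 Agonist activity of compounds is assessed in stably transfected CHO-K1 cells using the calcium dye Fluo-4 at 37 °C in HEPES-buffered HBSS (pH 7.4). Efficacy is expressed relative to the reference agonist Lundbeck Cmp 1a, set as 100%.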

[2] = target: T1, GPR139; experiment: Ca2+ mobilization assay, antagonist mode (EC80 800 nM Lundbeck Cmp 1a after 20 min preincubation), GPR139-CHOk1; conditions: individual replicates (Supplementary Figure 4)
Procedure, shortened: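 Antagonist mode: 800 nM (EC80) reference agonist Lundbeck Cmp 1a added following 20 min pre-incubation with 10 µM compound. GPR139-CHOk1 cells, Fluo-4 dye, probenecid-containing HEPES buffer pH 7.4; intracellular Ca2+ measured at 37 °C (ex 485, em 525 nm).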

[3] = target: T2, human muscarinic acetylcholine M1 receptor (M1R) (Homo sapiens, UniProt P11229); experiment: Ca2+ mobilization counter-screen in M1R-CHOk1 cells; conditions: individual replicates (Supplementary Figure 5);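 also: 10 µM test compound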
T2 sequence (P11229 1-460): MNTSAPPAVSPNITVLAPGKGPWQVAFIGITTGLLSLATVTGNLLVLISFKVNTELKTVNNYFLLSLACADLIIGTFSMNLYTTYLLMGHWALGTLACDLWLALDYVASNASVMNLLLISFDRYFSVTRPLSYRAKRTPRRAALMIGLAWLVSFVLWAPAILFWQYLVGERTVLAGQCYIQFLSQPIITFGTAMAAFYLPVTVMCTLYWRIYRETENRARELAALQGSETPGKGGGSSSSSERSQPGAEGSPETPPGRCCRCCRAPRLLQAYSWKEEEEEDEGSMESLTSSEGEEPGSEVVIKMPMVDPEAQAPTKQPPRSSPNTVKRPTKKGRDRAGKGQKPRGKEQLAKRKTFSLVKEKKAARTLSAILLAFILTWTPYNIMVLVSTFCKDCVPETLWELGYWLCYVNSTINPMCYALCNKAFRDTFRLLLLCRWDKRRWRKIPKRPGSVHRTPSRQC
Procedure, shortened: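 Intracellular calcium flux was measured by fluorescence (485 nm excitation, 525 nm emission) at 37 °C after automated compound addition following baseline, with final DMSO ≤0.3%. CHO-K1 cells stably expressing human M1R were plated 20–24 h beforehand. Cells were dye-loaded with 2 µM Fluo-4 AM for 1 h in pH 7.4 HEPES/HBSS containing 2.5 mM probenecid.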

[4] = Agonist mode, individual replicates (Supplementary Figure 4)
[5] = GPR139-CHOk1, read-out: EC50, Ca2+ mobilization
[6] = Supplementary Table 2, mean ± SEM
[7] = log [Compound] M = -4.5, individual replicate columns
[8] = log [Compound] M = -5.0, individual replicate columns
[9] = log [Compound] M = -5.5, individual replicate columns
[10] = log [Compound] M = -6.0, individual replicate columns
[11] = log [Compound] M = -6.5, individual replicate columns
[12] = log [Compound] M = -7.0, individual replicate columns
[13] = log [Compound] M = -7.5, individual replicate columns
[14] = log [Compound] M = -8.0, individual replicate columns
[15] = log [Compound] M = -8.5, individual replicate columns
[16] = log [Compound] M = -9.0, individual replicate columns
[17] = Supplementary Table 2, mean ± SEM, read-out: pEC50 Ca2+ (converted)

Row | EC50 [1, 5] [nM] | Emax [1, 6] [%] | EC50 [1, 17] [nM] | Structure (SMILES) | Ca2+ signal (% of Cmp 1a) [1, 4] | Ca2+ signal (% of Cmp 1a) [1, 7] | Ca2+ signal (% of Cmp 1a) [1, 8] | Ca2+ signal (% of Cmp 1a) [1, 9] | Ca2+ signal (% of Cmp 1a) [1, 10] | Ca2+ signal (% of Cmp 1a) [1, 11] | Ca2+ signal (% of Cmp 1a) [1, 12] | Ca2+ signal (% of Cmp 1a) [1, 13] | Ca2+ signal (% of Cmp 1a) [1, 14] | Ca2+ signal (% of Cmp 1a) [1, 15] | Ca2+ signal (% of Cmp 1a) [1, 16] | Ca2+ signal (% of Cmp 1a) [2] | Ca2+ signal (% of Carbachol) [3]
1 | 100 | 109 ± 6 |  | Cc1cccc(-c2nc(CC(=O)NC(C)c3ccccc3)no2)c1 (stereo not drawn) [Compound 1.3, CC(C1=CC=CC=C1)NC(CC2=NOC(C3=CC(C)=CC=C3)=N2)=O] | 106 % of Cmp 1a and 102 % of Cmp 1a and 119 % of Cmp 1a | 95 % of Cmp 1a and 109 % of Cmp 1a and 110 % of Cmp 1a and 97 % of Cmp 1a | 91 % of Cmp 1a (2×) and 123 % of Cmp 1a and 104 % of Cmp 1a | 80 % of Cmp 1a and 126 % of Cmp 1a and 100 % of Cmp 1a and 85 % of Cmp 1a | 76 % of Cmp 1a and 101 % of Cmp 1a and 90 % of Cmp 1a and 71 % of Cmp 1a | 55 % of Cmp 1a and 89 % of Cmp 1a and 72 % of Cmp 1a and 60 % of Cmp 1a | 36 % of Cmp 1a and 68 % of Cmp 1a and 56 % of Cmp 1a and 52 % of Cmp 1a | 12 % of Cmp 1a and 48 % of Cmp 1a (2×) and 34 % of Cmp 1a | 5.33 % of Cmp 1a and 18 % of Cmp 1a and 26 % of Cmp 1a and 21 % of Cmp 1a | 5 % of Cmp 1a and 3.67 % of Cmp 1a and 12 % of Cmp 1a and 9 % of Cmp 1a | -3 % of Cmp 1a and 12 % of Cmp 1a and 5.67 % of Cmp 1a and 8 % of Cmp 1a | 13 % of Cmp 1a and 0.333 % of Cmp 1a and -11 % of Cmp 1a | 24 % of Carbachol and -2 % of Carbachol and 12 % of Carbachol
2 |  | 88 ± 2 | 3980 | Cc1nonc1Cc1nc(CC(=O)NC(C)c2ccccc2)no1 (stereo not drawn) [Compound 1.33, CC(C1=CC=CC=C1)NC(CC2=NOC(CC3=NON=C3C)=N2)=O] | 66 % of Cmp 1a and 46 % of Cmp 1a and 64 % of Cmp 1a | 85 % of Cmp 1a (2×) and 90 % of Cmp 1a and 83 % of Cmp 1a | 66 % of Cmp 1a and 64 % of Cmp 1a and 75 % of Cmp 1a and 85 % of Cmp 1a | 43 % of Cmp 1a and 39 % of Cmp 1a and 20 % of Cmp 1a and 51 % of Cmp 1a | 15 % of Cmp 1a and 21 % of Cmp 1a and 26 % of Cmp 1a and -5 % of Cmp 1a | 7 % of Cmp 1a and 26 % of Cmp 1a and 10 % of Cmp 1a and -17 % of Cmp 1a | -3.33 % of Cmp 1a and 29 % of Cmp 1a and 0 % of Cmp 1a and -12 % of Cmp 1a | 3 % of Cmp 1a and 6.33 % of Cmp 1a and 6 % of Cmp 1a and -13 % of Cmp 1a | 1 % of Cmp 1a and 1.67 % of Cmp 1a and 3 % of Cmp 1a and -15 % of Cmp 1a | 1.33 % of Cmp 1a (2×) and -3 % of Cmp 1a and -12 % of Cmp 1a | 4.33 % of Cmp 1a and 6.33 % of Cmp 1a and 12 % of Cmp 1a and -16 % of Cmp 1a | 30 % of Cmp 1a and 49 % of Cmp 1a and 42 % of Cmp 1a | -5 % of Carbachol and 8 % of Carbachol and 10 % of Carbachol
3 |  | 95 ± 3 | 1580 | Cc1cc(-c2nc(CC(=O)NC(C)c3ccccc3)no2)no1 (stereo not drawn) [Compound 1.23, CC(C1=CC=CC=C1)NC(CC2=NOC(C3=NOC(C)=C3)=N2)=O] | 72 % of Cmp 1a and 57 % of Cmp 1a and 85 % of Cmp 1a | 95 % of Cmp 1a and 102 % of Cmp 1a and 98 % of Cmp 1a and 93 % of Cmp 1a | 96 % of Cmp 1a and 81 % of Cmp 1a and 85 % of Cmp 1a and 77 % of Cmp 1a | 80 % of Cmp 1a and 55 % of Cmp 1a and 48 % of Cmp 1a and 70 % of Cmp 1a | 56 % of Cmp 1a and 30 % of Cmp 1a and 19 % of Cmp 1a and 38 % of Cmp 1a | 38 % of Cmp 1a and 9 % of Cmp 1a and -1 % of Cmp 1a and 11 % of Cmp 1a | 18 % of Cmp 1a and 5.7 % of Cmp 1a and 1.07 % of Cmp 1a and 6 % of Cmp 1a | 12 % of Cmp 1a (2×) and 15 % of Cmp 1a and 0.388 % of Cmp 1a | -3 % of Cmp 1a and 11 % of Cmp 1a and 10 % of Cmp 1a and 0.199 % of Cmp 1a | -4.71 % of Cmp 1a and 7 % of Cmp 1a and 14 % of Cmp 1a and -1.47 % of Cmp 1a | 4 % of Cmp 1a and 6.41 % of Cmp 1a and 7 % of Cmp 1a and -2.26 % of Cmp 1a | 15 % of Cmp 1a and 20 % of Cmp 1a and 10 % of Cmp 1a | -3 % of Carbachol and 4.36 % of Carbachol and 7 % of Carbachol
4 | 200 | 107 ± 2 |  | CC(NC(=O)Cc1noc(-c2cccs2)n1)c1ccccc1 (stereo not drawn) [Compound 1.8, CC(C1=CC=CC=C1)NC(CC2=NOC(C3=CC=CS3)=N2)=O] | 85 % of Cmp 1a and 73 % of Cmp 1a and 70 % of Cmp 1a | 109 % of Cmp 1a and 116 % of Cmp 1a and 101 % of Cmp 1a | 111 % of Cmp 1a and 105 % of Cmp 1a and 96 % of Cmp 1a | 93 % of Cmp 1a and 94 % of Cmp 1a and 84 % of Cmp 1a | 85 % of Cmp 1a and 82 % of Cmp 1a and 75 % of Cmp 1a | 69 % of Cmp 1a and 70 % of Cmp 1a and 47 % of Cmp 1a | 38 % of Cmp 1a and 47 % of Cmp 1a and 20 % of Cmp 1a | 0.333 % of Cmp 1a and 13 % of Cmp 1a and 7 % of Cmp 1a | -16 % of Cmp 1a and -13 % of Cmp 1a and 1.67 % of Cmp 1a | -16 % of Cmp 1a and 4.67 % of Cmp 1a and -5.33 % of Cmp 1a | -11 % of Cmp 1a and -5.67 % of Cmp 1a and -13 % of Cmp 1a | -5.67 % of Cmp 1a and 1.33 % of Cmp 1a and -13 % of Cmp 1a | 5 % of Carbachol and -12 % of Carbachol and 8 % of Carbachol
5 |  | 86 ± 8 | 200 | Cc1ccc(-c2nc(CC(=O)NC(C)c3ccccc3)no2)s1 (stereo not drawn) [Compound 1.9, CC(C1=CC=CC=C1)NC(CC2=NOC(C3=CC=C(S3)C)=N2)=O] | 88 % of Cmp 1a and 93 % of Cmp 1a and 63 % of Cmp 1a | 76 % of Cmp 1a and 96 % of Cmp 1a and 87 % of Cmp 1a and 68 % of Cmp 1a | 86 % of Cmp 1a and 100 % of Cmp 1a and 93 % of Cmp 1a and 70 % of Cmp 1a | 70 % of Cmp 1a and 105 % of Cmp 1a and 84 % of Cmp 1a and 64 % of Cmp 1a | 66 % of Cmp 1a and 73 % of Cmp 1a and 71 % of Cmp 1a and 65 % of Cmp 1a | 37 % of Cmp 1a and 55 % of Cmp 1a and 47 % of Cmp 1a and 52 % of Cmp 1a | 12 % of Cmp 1a and 23 % of Cmp 1a and 28 % of Cmp 1a and 35 % of Cmp 1a | 2.33 % of Cmp 1a and 12 % of Cmp 1a and 15 % of Cmp 1a and 9 % of Cmp 1a | -1.67 % of Cmp 1a (2×) and -4 % of Cmp 1a and 0 % of Cmp 1a | -4.67 % of Cmp 1a and -2 % of Cmp 1a (2×) and 2 % of Cmp 1a | -5 % of Cmp 1a and 7 % of Cmp 1a and -15 % of Cmp 1a and -4.33 % of Cmp 1a | 1.67 % of Cmp 1a and 13 % of Cmp 1a | -5 % of Carbachol and 6 % of Carbachol
